Activity calls are given as the source filed them. How the calls were made is not given here.
System: Jurkat
Experiment: Inhibition of TNF-alpha-induced necroptosis in FADD-deficient Jurkat T cells
Format: functional, cell-based
Set-up: concentration or dose not given beside the values
Settings: for EC50: Jurkat

`C#CCSc1nc2sccc2c(=O)n1-c1ccc(OC)cc1` was tested, and the Activity (Homo sapiens) was “inactive”.
`CSc1nc2sc3c(c2c(=O)n1-c1ccc(Cl)c(Cl)c1)CCCC3` was tested, and the Activity (Homo sapiens) was “inactive”.
`Cc1sc2nc(SCC#N)n(-c3ccc(N(C)C)cc3)c(=O)c2c1C` was tested, and the Activity (Homo sapiens) was “inactive”.
With `CCc1sc2nc(SCCO)n(-c3ccc(OC)cc3)c(=O)c2c1C` the Activity (Homo sapiens) was “inactive”.
With `COc1ccc(-n2c(SCC#N)nc3sc4ccccc4c3c2=O)cc1` the Activity was 83.3% and the EC50 (Homo sapiens) was 180 nM.
For `COc1ccc(-n2c(SCC#N)nc3sc4c(c3c2=O)CC(C)CC4)cc1OC` (configuration not stated), the Activity (Homo sapiens) was “inactive”.
For `N#CCSc1nc2sc3c(c2c(=O)n1-c1ccccc1)CCC3`, the Activity (Homo sapiens) was “inactive”.
With `CCCCCSc1nc2sc3c(c2c(=O)n1-c1ccc(OC)cc1)CCC3` the Activity (Homo sapiens) was “inactive”.
`N#CCSc1nc2sc3c(c2c(=O)n1-c1ccc(F)c(F)c1)CCCC3` was tested, and the Activity (Homo sapiens) was “inactive”.
For `CSc1nc2sc3c(c2c(=O)n1-c1ccc(F)cc1)CCC3`, the Activity was 95% and the EC50 (Homo sapiens) was 3000 nM.
For `COc1ccc(-n2c(SCc3ccc([N+](=O)[O-])cc3)nc3sc4c(c3c2=O)CCC4)cc1`, the Activity (Homo sapiens) was “inactive”.
`COc1ccc(-n2c(SCC#N)nc3sccc3c2=O)cc1` was tested, and the Activity (Homo sapiens) was “inactive”.
In the case of `COc1ccc(-n2c(SCC(C)=O)nc3sc4c(c3c2=O)CCCC4)cc1`, the Activity (Homo sapiens) is reported as “inactive”.
With `CSc1nc2sc(C)c(C)c2c(=O)n1-c1ccc(OC(F)(F)F)cc1` the Activity (Homo sapiens) was “inactive”.
In the case of `N#CCSc1nc2sc3c(c2c(=O)n1-c1ccccc1)CCCCC3`, the Activity (Homo sapiens) is reported as “inactive”.
`COc1ccc(-n2c(SCCO)nc3sc4c(c3c2=O)CCC4)cc1` gave an Activity of 100% and an EC50 (Homo sapiens) of 7140 nM.
With `CSc1nc2sc3ccccc3c2c(=O)n1-c1ccc(OC(F)(F)F)cc1` the Activity (Homo sapiens) was “inactive”.
For `CCc1sc2nc(SC)n(-c3ccc(F)cc3)c(=O)c2c1C`, the Activity (Homo sapiens) was “inactive”.
For `C#CCSc1nc2sc3c(c2c(=O)n1-c1ccc(OC)cc1)CCC3`, the Activity was 63.4% and the EC50 (Homo sapiens) was 2490 nM.
With `Cc1ccc(-n2c(SCC#N)nc3sc4c(c3c2=O)CC(C)CC4)cc1C` (configuration not stated) the Activity was 38% and the EC50 (Homo sapiens) was 16700 nM.
`CCc1c(C)sc2nc(SCCO)n(-c3ccc4c(c3)OCO4)c(=O)c12` was tested, and the Activity (Homo sapiens) was “inactive”.
`COc1ccc(-n2c(SCC#N)nc3sc4c(c3c2=O)CCC4)cc1` was tested, and the Activity was 100% and the EC50 (Homo sapiens) was 450 nM.
`COc1ccc(-n2c(SCC#N)nc3sc(C(C)C)c(C)c3c2=O)cc1` was tested, and the Activity (Homo sapiens) was “inactive”.
For `N#CCSc1nc2sc3c(c2c(=O)n1-c1ccccc1)CCCC3`, the Activity (Homo sapiens) was “inactive”.
With `N#CCSc1nc2sc3ccccc3c2c(=O)n1-c1ccc(OC(F)(F)F)cc1` the Activity (Homo sapiens) was “inactive”.
In the case of `CCCc1sc2nc(SCC)n(-c3ccc(OC)cc3)c(=O)c2c1C`, the Activity (Homo sapiens) is reported as “inactive”.
With `CSc1nc2sc3c(c2c(=O)n1-c1ccc(C)c(C)c1)CCC3` the Activity (Homo sapiens) was “inactive”.
`COc1ccc(-n2c(SCCl)nc3sc4c(c3c2=O)CCCC4)cc1` showed an Activity of 85% and an EC50 (Homo sapiens) of 2220 nM.
`Cc1sc2nc(SCC#N)n(-c3ccc(F)cc3)c(=O)c2c1C` showed an Activity of 87.6% and an EC50 (Homo sapiens) of 4430 nM.
`COc1ccc(-n2c(SCC#N)nc3sc4c(c3c2=O)CCCC4)cc1` was tested, and the Activity was 100% and the EC50 (Homo sapiens) was 240 nM.
For `CCc1c(C)sc2nc(SCC#N)n(-c3ccc(OC)cc3)c(=O)c12`, the Activity was 100% and the EC50 (Homo sapiens) was 1080 nM.
With `N#CCSc1nc2sc3c(c2c(=O)n1-c1ccc(F)cc1)CCCCC3` the Activity (Homo sapiens) was “inactive”.
In the case of `N#CCSc1nc2sc3c(c2c(=O)n1-c1ccc(OC(F)(F)F)cc1)CCCCC3`, the Activity (Homo sapiens) is reported as “inactive”.
With `COc1ccc(-n2c([S+](C)[O-])nc3sc4c(c3c2=O)CCCC4)cc1` (configuration not stated) the Activity (Homo sapiens) was “inactive”.
Molecule `C#CCSc1nc2sc(C)c(C)c2c(=O)n1-c1ccc(OC)cc1` has an Activity of 90.3% and an EC50 (Homo sapiens) of 4860 nM.
For `C=CCSc1nc2sc3c(c2c(=O)n1-c1ccc(OC)cc1)CCC3`, the Activity (Homo sapiens) was “inactive”.
Molecule `Cc1sc2nc(SCC#N)n(-c3ccc4c(c3)OCCO4)c(=O)c2c1C` has an Activity of 100% and an EC50 (Homo sapiens) of 250 nM.
`CSc1nc2sc(C)c(C)c2c(=O)n1-c1ccc(F)cc1` was tested, and the Activity was 69.2% and the EC50 (Homo sapiens) was 2600 nM.
Work on `CSc1nc2sc3c(c2c(=O)n1-c1ccc(C)c(C)c1)CCCC3` yielded an Activity of 38% and an EC50 (Homo sapiens) of 16700 nM.
`CSc1nc2sc3c(c2c(=O)n1-c1ccc(F)cc1)CCCC3` showed an Activity of 61.2% and an EC50 (Homo sapiens) of 1570 nM.
In the case of `CCCCCCSc1nc2sc3c(c2c(=O)n1-c1ccc(OC)cc1)CCCC3`, the Activity (Homo sapiens) is reported as “inactive”.
`CCOc1ccc(-n2c(SCC#N)nc3sc(C)c(C)c3c2=O)cc1` showed an Activity of 97% and an EC50 (Homo sapiens) of 7770 nM.
In the case of `CCCCSc1nc2sc3c(c2c(=O)n1-c1ccc(OC)cc1)CCCC3`, the Activity (Homo sapiens) is reported as “inactive”.
For `CCc1cc2c(=O)n(-c3ccc(OC)cc3)c(SCC#N)nc2s1`, the Activity (Homo sapiens) was “inactive”.
Molecule `C#CCSc1nc2sc3c(c2c(=O)n1-c1ccc(OC)cc1)CCCC3` has an Activity of 80.7% and an EC50 (Homo sapiens) of 6080 nM.
`N#CCSc1nc2sc3c(c2c(=O)n1-c1ccc2c(c1)OCCO2)CCC3` gave an Activity of 100% and an EC50 (Homo sapiens) of 250 nM.
For `COc1ccc(-n2c(S(C)(=O)=O)nc3sc4c(c3c2=O)CCCC4)cc1`, the Activity (Homo sapiens) was “inactive”.
For `COc1ccc(-n2c(SCC#N)nc3sc4c(c3c2=O)CCC4)cc1OC`, the Activity (Homo sapiens) was “inactive”.
With `CCCCSc1nc2sc3c(c2c(=O)n1-c1ccc(OC)cc1)CCC3` the Activity (Homo sapiens) was “inactive”.

— ChEMBL document CHEMBL1139128, “Structure-activity relationship analysis of a novel necroptosis inhibitor, Necrostatin-5” (Bioorg Med Chem Lett, 2007)
